Data set [1] in a line: Plasma pharmacokinetics after oral dosing, rat. The conditions noted are these: Rat (n = 4), 100 mg Active Agent/kg. The data set is classed as in vivo. As for the experimental part:
(§1) Alternatively, the compositions of the present invention, when dosed orally to a human or other mammal, provide an AUC inhibitor concentration in the blood (herein referred to as a plasma AUC) that is at least about 4 fold that observed when a control composition comprising all equivalent quantity of undispersed drug is dosed. It is noted that such compositions can also be said to have a relative bioavailability of about 4. Preferably, the compositions of the present invention, when dosed orally to a human or other mammal, provide an AUC inhibitor concentration in the blood that is at least about 6 fold, more preferably at least about 10 fold, and even more preferably at least about 20 fold that observed when a control composition comprising an equivalent quantity of undispersed drug is dosed. […] An exemplary dosing vehicle would be a suspension solution of water containing 0.5 wt percent […] (such as METHOCEL) and 0.16 wt percent of the surfactant polyoxyethylene 20 sorbitan monooleate (such as TWEEN 80). Thus, the compositions of the present invention can be evaluated in either in vitro or in vivo tests, or both. […]
(§2) Relative bioavailability of inhibitor in the dispersions of the present invention can be tested in vivo in animals or humans using conventional methods for making such a determination. […] In an in vivo crossover study a “test composition” of inhibitor and polymer is dosed to half a group of test subjects and, after an appropriate washout period (e.g., one week) the same subjects are dosed with a “control composition” that comprises an equivalent quantity of inhibitor as the “test composition” (but with no polymer present). […] The relative bioavailability is measured as the concentration in the blood (serum or plasma) versus time area under the curve (AUC) determined for the test group divided by the AUC in the blood provided by the control composition. Preferably, this test/control ratio is determined for each subject, and then the ratios are averaged over all subjects in the study. […]

Data set [2] has as its target inactive (unphosphorylated) TIE2 kinase (Homo sapiens, UniProt Q02763). As to the kind of experiment: Inhibition of inactive TIE2 kinase. The class given is biochemical. The source says:
(§3) The crystalline and non-crystalline forms and formulations of 1-[5-(4-Amino-7-isopropyl-7H-pyrrolo[2,3-d[pyrimidine-5-carbonyl)-2-methoxy-phenyl]-3-(2 4-dichloro-phenyl)-urea are selective inhibitors of the tyrosine kinases, Tie-2, TrkA and related family member TrkB. The potentcy of these forms and formulations of the present invention at the tyrosine kinases may be determined using the following assays.

The nature of data set [3]: Plasma pharmacokinetics after oral dosing, dog. The data set is classed as in vivo. As to conditions: Dog (n = 3), 30 mg Active Agent/kg. Here is the method: as §1, §2
In data set [4] the target is T1, recombinant human erbB-TIE2 chimeric receptor overexpressed in C6 rat glioma cells (Homo sapiens, UniProt Q02763).
T1 construct: erbB extracellular domain with TIE2 intracellular domain; extracellular domain of human EGFR (erbB); expressed in transfected cells; host or cells: C6 rat glioma cells
T1 sequence (Q02763 770-1124 limits assumed, change not shown): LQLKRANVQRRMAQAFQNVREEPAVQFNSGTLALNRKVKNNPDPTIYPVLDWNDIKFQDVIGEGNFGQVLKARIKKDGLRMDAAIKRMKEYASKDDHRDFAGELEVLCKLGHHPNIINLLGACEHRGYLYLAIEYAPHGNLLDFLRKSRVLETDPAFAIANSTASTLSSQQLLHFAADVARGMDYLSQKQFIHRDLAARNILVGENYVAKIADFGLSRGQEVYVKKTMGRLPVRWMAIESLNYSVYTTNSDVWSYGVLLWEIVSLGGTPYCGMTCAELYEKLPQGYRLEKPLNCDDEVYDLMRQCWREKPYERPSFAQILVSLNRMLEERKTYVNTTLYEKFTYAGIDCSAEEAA
Kind of data set: Cell-based TIE-2 kinase activity of chimeric receptor.

Data set [5] is described as follows: In vitro dissolution test in Model Fasted Duodenal (MFD) solution. The class given is physicochemical. As to conditions: 1.8 mL MFD; 0.36 mg free base active agent or 1.44 mg active agent in spray dry dispersion. As for the experimental part:
The compositions comprising the active agent and concentration-enhancing polymer provide enhanced concentration of the dissolved inhibitor in in vitro dissolution tests. It has been determined that enhanced drug concentration in in vitro dissolution tests in Model Fasted Duodenal (MFD) solution or Phosphate Buffered Saline (PBS) is a good indicator of in vivo performance and bioavailability. An appropriate PBS solution is an aqueous solution comprising 20 mM sodium phosphate (Na2HPO4), 47 mM potassium phosphate (KH2PO4), 87 mM sodium chloride (NaCl), and 0.2 mM potassium chloride (KCl), adjusted to pH 6.5 with sodium hydroxide (NaOH). An appropriate MFD solution is the same PBS solution wherein additionally is present 7.3 mM sodium taurocholic acid and 1.4 mM of 1-palmitoyl-2-oleyl-sn-glycero-3-phosphocholine. In particular, a composition of the present invention can be dissolution-tested by adding it to MFD or PBS solution and agitating to promote dissolution. […]
The concentration of dissolved inhibitor is typically measured as a function of time by sampling the test medium and plotting inhibitor concentration in the test medium vs. time so that the MDC can be ascertained. The MDC is taken to be the maximum value of dissolved inhibitor measured over the duration of the test. […]

For data set [6], the target named is T2, fully activated recombinant GST-TIE2 construct (Homo sapiens, UniProt Q02763).
T2 construct: made in house; host or cells: insect cells (baculovirus)
T2 sequence (Q02763 23-1124): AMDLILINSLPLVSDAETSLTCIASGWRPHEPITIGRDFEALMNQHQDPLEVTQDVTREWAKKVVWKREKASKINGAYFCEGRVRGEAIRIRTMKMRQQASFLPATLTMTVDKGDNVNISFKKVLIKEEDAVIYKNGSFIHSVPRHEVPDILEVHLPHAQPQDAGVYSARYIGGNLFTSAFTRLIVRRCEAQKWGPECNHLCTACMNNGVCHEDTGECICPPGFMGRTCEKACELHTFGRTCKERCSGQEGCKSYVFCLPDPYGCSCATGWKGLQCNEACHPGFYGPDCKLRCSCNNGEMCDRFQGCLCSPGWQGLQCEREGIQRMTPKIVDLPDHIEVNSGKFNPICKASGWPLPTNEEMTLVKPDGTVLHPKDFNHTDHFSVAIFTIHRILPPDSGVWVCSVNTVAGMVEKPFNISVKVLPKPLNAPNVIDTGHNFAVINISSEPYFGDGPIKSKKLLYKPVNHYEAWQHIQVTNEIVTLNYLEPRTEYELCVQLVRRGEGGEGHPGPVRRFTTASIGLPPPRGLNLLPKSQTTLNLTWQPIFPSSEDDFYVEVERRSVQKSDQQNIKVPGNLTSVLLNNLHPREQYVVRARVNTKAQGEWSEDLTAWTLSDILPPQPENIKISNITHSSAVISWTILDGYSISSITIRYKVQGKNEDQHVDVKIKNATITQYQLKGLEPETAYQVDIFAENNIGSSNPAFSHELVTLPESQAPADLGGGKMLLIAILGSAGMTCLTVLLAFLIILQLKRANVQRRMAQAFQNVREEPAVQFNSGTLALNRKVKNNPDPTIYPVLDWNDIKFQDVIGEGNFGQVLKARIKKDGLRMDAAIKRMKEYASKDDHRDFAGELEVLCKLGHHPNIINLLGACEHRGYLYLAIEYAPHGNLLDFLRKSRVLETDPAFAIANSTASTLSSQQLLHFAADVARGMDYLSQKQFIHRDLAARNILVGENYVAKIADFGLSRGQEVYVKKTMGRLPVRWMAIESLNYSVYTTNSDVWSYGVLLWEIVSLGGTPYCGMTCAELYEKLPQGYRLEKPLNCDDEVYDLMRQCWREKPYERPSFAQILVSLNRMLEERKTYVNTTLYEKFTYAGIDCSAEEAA
Kind of data set: Tie-2 tyrosine kinase inhibition, GST-Tie-2 fusion protein, PGT plate ELISA. The data set is classed as biochemical. As for the experimental part: as §3
Inhibition of Tie-2 tyrosine kinase activity is measured in 96-well Maxisorp plates (Nunc) coated with poly-Glu-Tyr (PGT 4:1 Sigma) by the addition of 100 μL/well of a 25 μg/mL solution of PGT in PBS. Plates are incubated at 37° C. overnight, and transferred to 4° C. until use. Prior to compound testing, appropriate dilutions of compounds are made in 96-well polypropylene plates. […] GST-Tie-2 would be previously isolated from insect cells infected with GST-Tie-2 baculoviruses, and used at concentrations determined to provide OD450 signals of approximately 1.0 in the presence of ATP and the absence of chemical inhibitors. […] The bound HRP-PY20 antibody can be detected by the addition of 70 μL/well TMB microwell substrate (KPL), and color development terminated by the addition of an equal volume of 0.9 M H2SO4. The background signal from wells lacking ATP can be subtracted from all ATP-stimulated wells, and IC50 values calculated.
For orientation: An ELISA detects its analyte on a solid surface through an enzyme-linked reagent.

Data set [7] in a line: Hygroscopicity of salt forms. The data set is classed as physicochemical. The conditions noted are these: at 90 percent relative humidity at ambient temperature.

Structures are written as SMILES.

Chain of inactive (unphosphorylated) TIE2 kinase (Q02763 23-1124): as above

Regarding `COc1ccc(C(=O)c2cn(C(C)C)c3ncnc(N)c23)cc1NC(=O)Nc1ccc(Cl)cc1Cl` [1-[5-(4-amino-7-isopropyl-7H-pyrrolo[2,3-d]pyrimidine-5-carbonyl)-2-methoxy-phenyl]-3-(2,4-dichloro-phenyl)-urea], the Cmax amounted to 191 ± 153 ng/mL in data set [1] and 347 ± 556 ng/mL in data set [3]. The values for the Tmax in data set [1] and in data set [3] were 4.5 ± 1 h and 4 ± 2 h, respectively. The figures for the AUC(0-t) in data set [1] (read-out: AUC0-24) and in data set [3] (read-out: AUC0-24) were 1300 ± 940 ng·h/mL and 2810 ± 4550 ng·h/mL, respectively. The molecule also showed a Ki in data set [2] of 23 nM. For the same molecule, the IC50 was 4.67 nM in data set [4] and 280 nM in data set [6]. Moreover, the “AUC (aqueous concentration versus time)” value in data set [5] stood at 100 µg·min/mL. Further, the “MDC (Maximum Drug Concentration)” value in data set [5] is 3 µg/mL.

With `COc1ccc(C(=O)c2cn(C(C)C)c3ncnc(N)c23)cc1NC(=O)Nc1ccc(Cl)cc1Cl.O=P(O)(O)O` [Example 1, 1-[5-(4-Amino-7-isopropyl-7H-pyrrolo[2,3-d]pyrimidine-5-carbonyl)-2-methoxy-phenyl]-3-(2,4-dichloro-phenyl)-urea•Phosphate], the Hygroscopicity in data set [7] is on record as 0.8 percent (by weight).

With `COc1ccc(C(=O)c2cn(C(C)C)c3ncnc(N)c23)cc1NC(=O)Nc1ccc(Cl)cc1Cl.CS(=O)(=O)O` [Example 2, 1-[5-(4-Amino-7-isopropyl-7H-pyrrolo[2,3-d]pyrimidine-5-carbonyl)-2-methoxy-phenyl]-3-(2,4-dichloro-phenyl)-urea•Mesylate (Form B)], the Hygroscopicity in data set [7] is on record as 7.9 percent (by weight).

In the case of `COc1ccc(C(=O)c2cn(C(C)C)c3ncnc(N)c23)cc1NC(=O)Nc1ccc(Cl)cc1Cl.CS(=O)(=O)O` [Example 3, 1-[5-(4-Amino-7-isopropyl-7H-pyrrolo[2,3-d]pyrimidine-5-carbonyl)-2-methoxy-phenyl]-3-(2,4-dichloro-phenyl)-urea•Mesylate (Polymorph A)], in data set [7], the Hygroscopicity was 1.6 percent (by weight).

For the molecule `COc1ccc(C(=O)c2cn(C(C)C)c3ncnc(N)c23)cc1NC(=O)Nc1ccc(Cl)cc1Cl.O=S(=O)(O)c1ccccc1` [Example 8, 1-[5-(4-Amino-7-isopropyl-7H-pyrrolo[2,3-d]pyrimidine-5-carbonyl)-2-methoxy-phenyl]-3-(2,4-dichloro-phenyl)-urea•Besylate], the Hygroscopicity in data set [7] is on record as 2.0 percent (by weight).

As to `COc1ccc(C(=O)c2cn(C(C)C)c3ncnc(N)c23)cc1NC(=O)Nc1ccc(Cl)cc1Cl.Cc1ccc(S(=O)(=O)O)cc1` [Example 9, 1-[5-(4-Amino-7-isopropyl-7H-pyrrolo[2,3-d]pyrimidine-5-carbonyl)-2-methoxy-phenyl]-3-(2,4-dichloro-phenyl)-urea•Tosylate], the Hygroscopicity in data set [7] is given as 1.1 percent (by weight).

Broadly, the Cmax is the highest concentration seen after dosing. Broadly, the Tmax is the time at which the peak concentration occurs. Usually Ki stands for the dissociation constant of the complex between target and ligand, obtained from inhibition or displacement. Broadly, the IC50 is the concentration that inhibits the measured activity by half.

Values taken from patent US20070287719A1, “Salts, Prodrugs and Formulations of 1-[5-(4-Amino-7-Isopropyl-7H-Pyrrolo[2,3-D]Pyrimidine-5-Carbonyl)-2-Methoxy-Phenyl]-3-(2,4-Dichloro-Phenyl)-Urea” (Pfizer Inc, priority 2005, published 2007).
